Test results: patent publication US7955808B2, “Bitter taste receptors” (Deutsches Institut für Ernährungsorschung, Stiftung des …, priority 2002, dated 2011)

How the values were obtained:
human panelists [1] = test: Human taste adaptation experiment; format: in vivo; conditions: for initial bitterness score by test panel: 8 mM, 15 s; for bitterness after prolonged stimulation with phenyl-beta-D-glucopyranoside (cross-adaptation): in vivo
Description: To investigate adaptation, the 8 panelists first maintained aqueous solutions (5 ml) of phenyl-β-D-glucopyranoside (8 mM), phenyl-alpha-D-glucopyranoside (180 mM), salicin (8 mM), or helicin (8 mM) for 15 s in their oral cavities and evaluated the bitter intensity as described above. After 30 min, they kept a denatonium benzoate solution (5 ml, 0.0003 mM) for 15 s in their mouth and evaluated its bitterness. The panelists spat off the denatonium benzoate solution, took up the phenyl-β-D-glucopyranoside or the phenyl-alpha-D-glucopyranoside solutions orally for 120 s or 180 s and judged their bitterness intensity after 15, 30, 60, 120 and 180s. Thereafter, the panelists spat off these solutions and then sequentially took up salicin, helicin (5 ml, 8 mM) and denatonium benzoate (5 ml, 0.0003 mM) and evaluated bitterness intensities of these solutions after 15 s. After an additional 30 min, the first experiment was repeated. The data of three different sessions for each panelist were averaged. Intensity values between individuals and separate sessions differed by not more than ±0.5 units.

hTAS2R16 [2] = target: T1, hTAS2R16 (Homo sapiens, UniProt Q9NYV7, R222H); test: FLIPR assay, heterologous expression of hTAS2R16; format: cell-based; conditions: hTAS2R16; for EC50: read-out: EC50
T1 construct: gene-specific primers that span the complete coding region of the individual hTAS2R genes; first 45 amino acids of rat somatostatin type 3 receptor (cell surface-targeting signal) (N); expressed in transfected cells; host or cells: HEK293/15 cells (HEK293 stably expressing Galpha15), transient transfection
T1 sequence (Q9NYV7 1-291 R222H): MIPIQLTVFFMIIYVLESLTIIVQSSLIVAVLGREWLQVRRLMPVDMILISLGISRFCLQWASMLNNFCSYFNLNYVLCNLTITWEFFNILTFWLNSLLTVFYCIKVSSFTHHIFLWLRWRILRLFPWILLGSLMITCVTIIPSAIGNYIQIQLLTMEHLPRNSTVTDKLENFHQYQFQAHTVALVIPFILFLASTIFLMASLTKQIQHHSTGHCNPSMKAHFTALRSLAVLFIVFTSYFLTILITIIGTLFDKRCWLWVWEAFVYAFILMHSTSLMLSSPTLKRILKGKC
Source text: (§1) Transient transfection of TAS2Rs into HEK-293T-Gα16gustducin44 cells.

human panelists [3] = test: Human taste experiments: bitter thresholds and dose-response by sensory panel; format: in vivo; conditions: for Threshold Value Human: bitter threshold, triangle test, tap water; for EC50: bitterness intensity dose-response
Description: 15 experienced panelists in a sensory panel room at 22-25° C. determined bitter thresholds on three different sessions using a triangle test with tap water as solvent, according to methodology set out in J. Agric. Food Chem., 49, 231-238 (2001), or Mailgaard M et al, “Sensory Evaluation Techniques” (CRC Press LLC, New York 1999). For dose-response relations, bitter tastant concentration series were presented to 10 trained panelists in random order. The panelists ranked the samples in increasing order of intensity and, for each concentration, evaluated bitterness intensity on a scale from 0 to 5 (ref. 24). The dose-response curves of three different sessions were averaged. The intensity values between individuals and separate sessions differed by not more than 0.5 units.

hTAS2R16 [4] = target: T1, hTAS2R16; test: FLIPR calcium assay, hTAS2R16-expressing HEK293/15 transfectants; format: cell-based
Description: A fluorescence imaging plate reader (FLIPR, Molecular Devices) was used to functionally screen cell populations transiently transfected with expression vectors encoding the above-described 24 bitter receptors and to establish concentration-response curves for hTAS2R16 and hTASR10. […] For the FLIPR experiments the HEK293/15 cells were grown to 50% confluence. […] After 48 h the cells in each well were transfected using Lipofectamine 2000 and 24-30 h later were loaded with FIuo4AM (Molecular Probes). Thereafter they were stimulated with bitter compounds (SigmaAldrich, further purified by reversed-phase HPLC to >99% purity). Calcium signals were recorded simultaneously from each well at 1 Hz at 510 nm after excitation at 488 nm and the recordings were corrected for cell density. […] The calculations rest on at least four independent transfection experiments.
EC50 and threshold values obtained with hTAS2R16-expressing transfectants are shown in Table 1 below and the results are described in Example 4.

hTAS2R14 = target: T2, hTAS2R14 (Homo sapiens, UniProt Q9NYV8); test: FLIPR assay, heterologous expression of hTAS2R14; format: cell-based
T2 construct: gene-specific primers that span the complete coding region of the individual hTAS2R genes; first 45 amino acids of rat somatostatin type 3 receptor (cell surface-targeting signal) (N); expressed in transfected cells; host or cells: HEK-293T-Gα16gustducin44 cells (alternatively HEK-293 co-transfected with phospholipase-Cβ2 and α-gustducin)
T2 sequence (Q9NYV8 1-317): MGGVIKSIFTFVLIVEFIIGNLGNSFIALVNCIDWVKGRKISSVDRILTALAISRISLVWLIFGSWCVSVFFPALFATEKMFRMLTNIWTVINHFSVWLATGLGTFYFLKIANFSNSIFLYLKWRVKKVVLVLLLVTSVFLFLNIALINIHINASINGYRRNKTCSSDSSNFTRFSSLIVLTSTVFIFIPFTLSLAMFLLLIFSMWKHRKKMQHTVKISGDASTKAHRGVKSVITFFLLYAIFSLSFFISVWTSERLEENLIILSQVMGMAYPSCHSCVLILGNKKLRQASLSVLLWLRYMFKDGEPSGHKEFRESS
Source text: as §1

hTAS2R10 [5] = target: T3, hTAS2R10 (Homo sapiens, UniProt Q9NYW0, T156M); test: FLIPR calcium assay, hTAS2R10-expressing HEK293/15 transfectants; format: cell-based
T3 construct: gene-specific primers that span the complete coding region of the individual hTAS2R genes; first 45 amino acids of rat somatostatin type 3 receptor (cell surface-targeting signal) (N); expressed in transfected cells; host or cells: HEK-293T-Gα16gustducin44 cells (alternatively HEK-293 co-transfected with phospholipase-Cβ2 and α-gustducin)
T3 sequence (Q9NYW0 1-307 T156M): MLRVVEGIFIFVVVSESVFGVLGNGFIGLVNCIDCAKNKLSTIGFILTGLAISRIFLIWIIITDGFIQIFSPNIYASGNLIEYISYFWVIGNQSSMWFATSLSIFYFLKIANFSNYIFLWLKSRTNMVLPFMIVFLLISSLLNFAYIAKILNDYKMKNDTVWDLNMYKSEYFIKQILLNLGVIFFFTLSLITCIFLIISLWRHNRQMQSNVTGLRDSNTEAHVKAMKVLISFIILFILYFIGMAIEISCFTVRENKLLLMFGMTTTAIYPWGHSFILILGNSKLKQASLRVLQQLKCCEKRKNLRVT
Description: A fluorescence imaging plate reader (FLIPR, Molecular Devices) was used to functionally screen cell populations transiently transfected with expression vectors encoding the above-described 24 bitter receptors and to establish concentration-response curves for hTAS2R16 and hTASR10. […] For the FLIPR experiments the HEK293/15 cells were grown to 50% confluence. The cells were then seeded at a density of 3×10^3 cells per well into 96-well black-wall, clear-bottom microtiter plates (Greiner). After 48 h the cells in each well were transfected using Lipofectamine 2000 and 24-30 h later were loaded with FIuo4AM (Molecular Probes). […] The responses of five wells containing cells expressing the same receptor and that received the same stimulus (i.e., the same compound at the same concentration) were averaged. Calcium traces were subtracted that were determined in triplicate of mock-transfected cells stimulated with the same concentration of tastant. The calculations rest on at least four independent transfection experiments.

hTAS2R10 [6] = target: T3, hTAS2R10; test: FLIPR assay, heterologous expression of hTAS2R10; format: cell-based
Source text: as §1

hTAS2R16 [7] = target: T1, hTAS2R16; test: Single-cell Ca2+ imaging, hTAS2R16-transfected HEK293/15 cells (selectivity, cross-desensitization); format: cell-based
Description: A fluorescence imaging plate reader (FLIPR, Molecular Devices) was used to functionally screen cell populations transiently transfected with expression vectors encoding the above-described 24 bitter receptors and to establish concentration-response curves for hTAS2R16 and hTASR10. […] For the FLIPR experiments the HEK293/15 cells were grown to 50% confluence. […] After 48 h the cells in each well were transfected using Lipofectamine 2000 and 24-30 h later were loaded with FIuo4AM (Molecular Probes). Thereafter they were stimulated with bitter compounds (SigmaAldrich, further purified by reversed-phase HPLC to >99% purity). Calcium signals were recorded simultaneously from each well at 1 Hz at 510 nm after excitation at 488 nm and the recordings were corrected for cell density. […]
Single-cell Ca^2+ imaging was performed with the hTAS2R16-transfected HEK293/15 cells as described in Cell 95, 917-926 (1998), but with the following modifications: The Till Photonics imaging system (Munich, Germany) was used in which a monochromator is connected by a quartz fiber lightguide and an epifluorescence condenser to an inverted Olympus IX50 microscope equipped with a UApo/340 40×1.35 oil-immersion lens. […] The 5 s interval camera pictures of all cells in the microscope field of vision permanently were stored and analyzed offline. […]

hT2R4 receptor = target: T4, hT2R4 receptor (Homo sapiens, UniProt Q9NYW5); conditions: concentrations needed two orders of magnitude above human taste thresholds; cited from earlier work
T4 sequence (Q9NYW5 1-299): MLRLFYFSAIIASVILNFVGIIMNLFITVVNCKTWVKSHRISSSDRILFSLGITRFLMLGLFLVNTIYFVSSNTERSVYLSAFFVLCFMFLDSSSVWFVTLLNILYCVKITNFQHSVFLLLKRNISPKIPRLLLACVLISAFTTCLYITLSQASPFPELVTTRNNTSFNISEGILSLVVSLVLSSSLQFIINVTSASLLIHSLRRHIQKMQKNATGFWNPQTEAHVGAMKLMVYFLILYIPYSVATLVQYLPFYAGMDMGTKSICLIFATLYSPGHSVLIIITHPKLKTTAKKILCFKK

O=Cc1ccccc1O[C@@H]1O[C@H](CO)[C@@H](O)[C@H](O)[C@H]1O [Compound 3, helicin]
initial bitterness score by test panel (human panelists [1]): equally intensely bitter | bitterness after prolonged stimulation with phenyl-beta-D-glucopyranoside (cross-adaptation) (human panelists [1]): less bitter | Threshold (hTAS2R16 [2]): 0.3 ± 0.1 mM | EC50 (hTAS2R16 [2]): 2300 ± 400 µM | Threshold Value Human (human panelists [3]): 0.4 ± 0.1 mM | EC50 (human panelists [3]): 2200 µM | EC50 (hTAS2R16 [4]): 2300 µM | Threshold Value FLIPR (hTAS2R16 [4]): 0.3 ± 0.1 mM

N[C@@H](Cc1c[nH]cn1)C(=O)O [histidine]
receptor activation (in words) (hTAS2R14): activated

O=C1C[C@@H]2OCC=C3CN4CC[C@]56c7ccccc7N1[C@H]5[C@H]2[C@H]3C[C@H]46 [Strychnine]
EC50 (hTAS2R10 [5]): 5 to 20 µM | threshold of activation (hTAS2R10 [5]; hTAS2R10 transfectants): approximately 0.1 μM | EC50 (hTAS2R10 [6]): 40 µM | Approx. Threshold (hTAS2R10 [6]; hTAS2R10): 0.003 mM | receptor activation (in words) (hTAS2R10 [6]; hTAS2R10): activated

CC(C)C[C@H](N)C(=O)O [leucine]
receptor activation (in words) (hTAS2R14): activated

CC[N+](CC)(CC(=O)Nc1c(C)cccc1C)Cc1ccccc1.O=C([O-])c1ccccc1 [Denatonium benzoate]
bitterness after prolonged stimulation with phenyl-beta-D-glucopyranoside (cross-adaptation) (human panelists [1]): not | Approx. Threshold (hTAS2R10 [6]; hTAS2R10): 0.003 mM | receptor activation (in words) (hTAS2R10 [6]; hTAS2R10): activated | EC50 (hTAS2R10 [6]; hTAS2R10, read-out: EC50): 70 µM | activation of TAS2R16 (hTAS2R16 [7]): cannot activate

N[C@@H](Cc1c[nH]c2ccccc12)C(=O)O [tryptophan]
receptor activation (in words) (hTAS2R14): activated

OC[C@H]1O[C@@H](Oc2ccccc2)[C@H](O)[C@@H](O)[C@@H]1O [Compound 1, phenyl-beta-D-glucopyranoside]
initial bitterness score by test panel (human panelists [1]): equally intensely bitter | own bitterness during prolonged stimulation (adaptation) (human panelists [1]; 120 s or 180 s in the mouth): declined | Threshold (hTAS2R16 [2]): 0.07 ± 0.02 mM | EC50 (hTAS2R16 [2]): 1100 ± 100 µM | Threshold Value Human (human panelists [3]): 0.1 ± 0.05 mM | EC50 (human panelists [3]): 700 µM | EC50 (hTAS2R16 [4]): 1100 µM | Threshold Value FLIPR (hTAS2R16 [4]): 0.07 ± 0.02 mM

N[C@@H](Cc1ccc(O)cc1)C(=O)O [L-Tyrosine]
reacts at (hTAS2R14): 1 mM | receptor activation (in words) (hTAS2R14): activated

N[C@@H](Cc1ccccc1)C(=O)O [phenylalanine]
receptor activation (in words) (hTAS2R14): activated

OCc1ccccc1O[C@@H]1O[C@H](CO)[C@@H](O)[C@H](O)[C@H]1O [Compound 2, salicin]
initial bitterness score by test panel (human panelists [1]): equally intensely bitter | bitterness after prolonged stimulation with phenyl-beta-D-glucopyranoside (cross-adaptation) (human panelists [1]): less bitter | Threshold (hTAS2R16 [2]): 0.07 ± 0.02 mM | EC50 (hTAS2R16 [2]): 1400 ± 200 µM | Threshold Value Human (human panelists [3]): 0.2 ± 0.1 mM | EC50 (human panelists [3]): 1100 µM | EC50 (hTAS2R16 [4]): 1400 µM | Threshold Value FLIPR (hTAS2R16 [4]): 0.07 ± 0.02 mM | response after repeated stimulation with phenyl-beta-D-glucopyranoside (cross-desensitization) (hTAS2R16 [7]; hTAS2R16-expressing cells): largely diminished responses

CC[N+](CC)(CC(=O)Nc1c(C)cccc1C)Cc1ccccc1 [denatonium]
in vitro response of the receptor (hT2R4 receptor): provided a response
